Structures can show the parent of a compound that is named as a salt.
Columns and labels:
[1] = tested on: CYPRO; test: Example II: in-water applied herbicidal mixtures, weed control in transplanted paddy rice (greenhouse), CYPRO; assay type: in vivo, Cyperus rotundus (purple nutsedge); conditions: for Visual Weed Control (%) Obs: 22 DAA; for Visual Weed Control (%) - 20 DAA CYPRO Obs: in-water application
Method: (§1) The prepared mud was dispensed in 365 mL aliquots into 16-ounce (oz.) non-perforated plastic pots with a surface area of 86.59 square centimeters (cm^2) leaving a headspace of 3 centimeters (cm) in each pot Mud was allowed to dry overnight prior to planting or transplanting. Rice seeds were planted in Sun Gro MetroMix® 306 planting mixture, which typically has a pH of 6.0 to 6.8 and an organic matter content of about 30 percent, in plastic plug trays. Seedlings at the second or third leaf stage of growth were transplanted into 840 mL of mud contained in 32-oz. non-perforated plastic pots with a surface area of 86.59 cm^2 4 days prior to herbicide application. […] Nutrients were added as Osmocote® (19:6:12, N:P:K^+ minor nutrients) at 2 g per 16-oz. pot and 4 g per 32-oz. pot.
(§2) Applications were made by injecting with a pipetter appropriate amounts of the application solutions, individually and sequentially, into the aqueous layer of the paddy. Control plants were treated in the same manner with the solvent blank. Applications were made so that all treated plant material received the same concentrations of acetone and crop oil concentrate.

[2] = tested on: ECHCG; test: Example II: in-water applied herbicidal mixtures, transplanted paddy rice, ECHCG; assay type: in vivo, Echinochloa crus-galli (barnyardgrass); conditions: 22 DAA
Method: as §1, §2

[3] = tested on: ECHOR; test: Example II: in-water applied herbicidal mixtures, transplanted paddy rice, ECHOR; assay type: in vivo, Echinochloa oryzoides (early watergrass)
Method: as §1, §2

[4] = tested on: SCPMA; test: Example II: in-water applied herbicidal mixtures, transplanted paddy rice, SCPMA; assay type: in vivo; conditions: for Visual Weed Control (%) Obs: 22 DAA
Method: as §1, §2

[5] = tested on: CASOB; test: Example V: postemergence herbicidal activity of mixtures in forage crops (greenhouse), CASOB; assay type: in vivo, Cassia obtusifolia (sicklepod); conditions: alone, 50 gae/ha, foliar, approximately 21 days
Method: (§3) Seeds or root cuttings of the desired test plant species were planted in Sun Gro MetroMix® 306 planting mixture, which typically has a pH of 6.0 to 6.8 and an organic matter content of about 30 percent, in plastic pots with a surface area of 126.6 square centimeters (cm^2). […] The plants were grown for 14-60 days in a greenhouse with an approximate 14 hour photoperiod which was maintained at approximately 28° C. during the day and 24° C. during the night.
(§4) Spray solutions of the second herbicide or experimental compound mixtures were prepared by adding the stock solutions to the appropriate amount of dilution solution to form 12 mL spray solution with active ingredients in two-way combinations.

[6] = tested on: CENMA; test: Example V: postemergence herbicidal activity of mixtures in forage crops, CENMA; assay type: in vivo, Centaurea maculosa (spotted knapweed); conditions: alone, foliar, approximately 21 days
Method: as §3, §4

[7] = tested on: CIRAR; test: Example V: postemergence herbicidal activity of mixtures in forage crops, CIRAR; assay type: in vivo, Cirsium arvense (Canada thistle); conditions: alone, 70 gae/ha, foliar, approximately 21 days
Method: as §3, §4

[8] = tested on: SONAR; test: Example V: postemergence herbicidal activity of mixtures in forage crops, SONAR; assay type: in vivo, Sonchus arvensis (field sowthistle); conditions: alone, foliar, approximately 21 days
Method: as §3, §4

[9] = tested on: DIGSA; test: Example I: postemergence foliar-applied herbicidal mixtures, direct seeded rice, DIGSA
Method: (§6) The soil matrix was contained in plastic pots with a volume of 1 quart and a surface area of 83.6 square centimeters (cm^2). […] The plants were grown for 8-22 days in a greenhouse with an approximate 14 h photoperiod which was maintained at about 29° C. during the day and 26° C. during the night. Nutrients (Peters Excel® 15-5-15 5-Ca 2-Mg and iron chelate) were applied in the irrigation solution as needed and water was added on a regular basis. Supplemental lighting was provided with overhead metal halide 1000-Watt lamps as necessary. The plants were employed for testing when they reached the first through fourth true leaf stage.
(§7) Treatments consisted of the acid or esters of 4-amino-3-chloro-5-fluoro-6-(4-chloro-2-fluoro-3-methoxy-phenyl)pyridine-2-carboxylic acid (Compound A), each formulated as an SC (suspension concentrate), and various herbicidal components alone and in combination. Forms of compound A were applied on an acid equivalent basis.
(§8) For treatments comprised of formulated compounds, measured amounts of compounds were placed individually in 25 mL glass vials and diluted in a volume of 1.25% (v/v) Agri-Dex® crop oil concentrated to obtain 12× stock solutions. […] Application solutions were prepared by adding an appropriate amount of each stock solution (e.g., 1 mL) and diluted to the appropriate final concentrations with the addition of 10 mL of an aqueous mixture of 1.25% (v/v) crop oil concentrate so that the final spray solutions contained 1.25+/−0.05% (v/v) crop oil concentrate.
(§9) All stock solutions and applications solutions were visually inspected for compound compatibility prior to application. Spray solutions were applied to the plant material with an overhead Mandel track sprayer equipped with a 8002E nozzles calibrated to deliver 187 L/ha over an application area of 0.503 m^2 at a spray height of 18 to 20 inches (46 to 50 cm) above average plant canopy height. Control plants were sprayed in the same manner with the solvent blank.
(§10) The treated plants and control plants were placed in a greenhouse as described above and watered by sub-irrigation to prevent wash-off of the test compounds. After approximately 3 weeks, the condition of the test plants as compared with that of the untreated plants was determined visually and scored on a scale of 0 to 100 percent where 0 corresponds to no injury or growth inhibition and 100 corresponds to complete kill.
(§11) Colby's equation was used to determine the herbicidal effects expected from the mixtures (Colby, S. R. 1967. Calculation of the synergistic and antagonistic response of herbicide combinations. Weeds 15:20-22).
(§12) The following equation was used to calculate the expected activity of mixtures containing two active ingredients, A and B: Expected=A+B−(A×B/100)
(§13) A=observed efficacy of active ingredient A at the same concentration as used in the mixture.
(§14) B=observed efficacy of active ingredient B at the same concentration as used in the mixture.

[10] = tested on: ECHCG; test: Example I: postemergence foliar-applied herbicidal mixtures, direct seeded rice, ECHCG
[11] = tested on: ECHCO; test: Example I: postemergence foliar-applied herbicidal mixtures, direct seeded rice, ECHCO
Method: as §6, §7, §8, §9, §10, §11, §12, §13, §14

[12] = tested on: LEFCH; test: Example II: in-water applied herbicidal mixtures, transplanted paddy rice, LEFCH; assay type: in vivo, Leptochloa chinensis (Chinese sprangletop); conditions: 280 gai/ha
Method: as §1, §2

[13] = tested on: BRSNN; test: Example IV: postemergence foliar-applied herbicidal mixtures, cereal crops, BRSNN; assay type: in vivo, Brassica napus (volunteer canola); conditions: alone, foliar, 20-22 days
Method: as §3, with “Seeds” for “Seeds or root cuttings”, “MetroMix” for “MetroMix®”, “103.2” for “126.6”, “7-36” for “14-60”, “about 18°” for “approximately 28°”, “17°” for “24°”
(§5) Spray solutions of the second cereal herbicide and experimental compound mixtures were prepared by adding the stock solutions to the appropriate amount of dilution solution to form 12 mL spray solution with active ingredients in two- and three-way combinations.

[14] = tested on: SINAR; test: Example V: postemergence herbicidal activity of mixtures in forage crops, SINAR; assay type: in vivo, Sinapis arvensis (wild mustard); conditions: alone, foliar, approximately 21 days
Method: as §3, §4

[15] = tested on: TRFRE; test: Example V: postemergence herbicidal activity of mixtures in forage crops, TRFRE; assay type: in vivo, Trifolium repens (white clover); conditions: alone, foliar, approximately 21 days
Method: as §3, §4

[16] = tested on: POLCO; test: Example IV: postemergence foliar-applied herbicidal mixtures, cereal crops, POLCO; assay type: in vivo, Polygonum convolvulus (wild buckwheat); conditions: alone, 140 gai/ha, foliar, 20-22 days
Method: as §3, with “Seeds” for “Seeds or root cuttings”, “MetroMix” for “MetroMix®”, “103.2” for “126.6”, “7-36” for “14-60”, “about 18°” for “approximately 28°”, “17°” for “24°”
as §5

[17] = tested on: VIOTR; test: Example IV: postemergence foliar-applied herbicidal mixtures, cereal crops, VIOTR; assay type: in vivo, Viola tricolor (wild pansy); conditions: alone, 140 gai/ha, foliar, 20-22 days
Method: as §3, with “Seeds” for “Seeds or root cuttings”, “MetroMix” for “MetroMix®”, “103.2” for “126.6”, “7-36” for “14-60”, “about 18°” for “approximately 28°”, “17°” for “24°”
as §5

[18] = 240 gae/ha, in-water application

SMILES: CCCCOCCOC(=O)COc1nc(Cl)c(Cl)cc1Cl [Triclopyr Butotyl Ester, 2-butoxyethyl 2-[(3,5,6-trichloro-2-pyridinyl)oxy]acetate, reference compound]
- Visual Weed Control (%) Obs ([1]; 70 gae/ha): 0%
- Visual Weed Control (%) Obs ([1]; 140 gae/ha): 40%
- Visual Weed Control (%) Obs ([2]; 70 gae/ha): 0%
- Visual Weed Control (%) Obs ([2]; 140 gae/ha): 0%
- pest or weed control at 70 g/ha ([3]; Echinochloa oryzoides, 528 h, 22 DAA, 70 gae/ha, read-out: Visual Weed Control (%) Obs): 0%
- pest or weed control at 140 g/ha ([3]; Echinochloa oryzoides, 528 h, 22 DAA, 140 gae/ha, read-out: Visual Weed Control (%) Obs): 0%
- Visual Weed Control (%) Obs ([4]; 70 gae/ha): 50%
- Visual Weed Control (%) Obs ([4]; 140 gae/ha): 60%
- CASOB Obs (observed value) [5]: 18%
- CENMA Obs (observed value) ([6]; 35 gae/ha): 30%
- CENMA Obs (observed value) ([6]; 70 gae/ha): 45%
- CIRAR Obs (observed value) [7]: 40%
- SONAR Obs (observed value) ([8]; 35 gae/ha): 60%
- SONAR Obs (observed value) ([8]; 70 gae/ha): 60%
- Visual Weed Control (%) - 23 DAA DIGSA Obs ([9]; 35 gae/ha): 0%
- Visual Weed Control (%) - 23 DAA DIGSA Obs ([9]; 70 gae/ha): 0%
- Visual Weed Control (%) - 23 DAA DIGSA Obs ([9]; 140 gae/ha): 0%
- Visual Weed Control (%) - 23 DAA ECHCG Obs ([10]; 35 gae/ha): 0%
- Visual Weed Control (%) - 23 DAA ECHCG Obs ([10]; 70 gae/ha): 0%
- Visual Weed Control (%) - 23 DAA ECHCG Obs ([10]; 140 gae/ha): 15%
- Visual Weed Control (%) - 23 DAA ECHCO Obs ([11]; 70 gae/ha): 0%
- Visual Weed Control (%) - 23 DAA ECHCO Obs ([11]; 140 gae/ha): 0%

SMILES: CCCCC(CC)COC(=O)COc1ccc(Cl)cc1C (stereo not drawn) [MCPA EHE, 2-ethylhexyl 2-(4-chloro-2-methylphenoxy)acetate, reference compound]
- Visual Weed Control (%) - 19 DAA ECHOR Obs ([3]; 280 gai/ha, in-water application): 30%
- Visual Weed Control (%) Obs ([12]; 19 DAA): 0%
- Visual Weed Control (%) - 19 DAA LEFCH Obs ([12]; in-water application): 0%

SMILES: Cc1cc(Cl)ccc1O[C@H](C)C(=O)O [Mecoprop, (2R)-2-(4-chloro-2-methylphenoxy)propanoic acid]
- BRSNN Ob (observed value) ([13]; 200 gai/ha): 70%

SMILES: O=C(O)COc1ccc(Cl)cc1Cl [2,4-D Choline Salt, 2-hydroxy-N,N,N-trimethylethanaminium 2-(2,4-dichlorophenoxy)acetate, reference compound]
- Visual Weed Control (%) - 20 DAA CYPRO Obs ([1]; 240 gae/ha): 30%
- Visual Weed Control (%) - 20 DAA CYPRO Obs ([1]; 480 gae/ha): 30%
- Visual Weed Control (%) - 20 DAA ECHOR Obs [3, 18]: 0%
- Visual Weed Control (%) - 20 DAA ECHOR Obs ([3]; 480 gae/ha, in-water application): 20%
- Visual Weed Control (%) - 20 DAA SCPMA Obs [4, 18]: 0%
- CASOB Obs (observed value) [5]: 3%

SMILES: Nc1c(Cl)c(Cl)nc(C(=O)[O-])c1Cl.[K+] [Picloram K^+ Salt]
- CENMA Obs (observed value) ([6]; 35 gae/ha): 20%
- CENMA Obs (observed value) ([6]; 70 gae/ha): 50%
- SINAR Obs (observed value) ([14]; 35 gae/ha): 30%
- SINAR Obs (observed value) ([14]; 70 gae/ha): 70%

SMILES: Nc1nc(C2CC2)nc(C(=O)O)c1Cl [Aminocyclopyrachlor, 6-amino-5-chloro-2-cyclopropyl-4-pyrimidinecarboxylic acid, reference compound]
- CENMA Obs (observed value) ([6]; 8.75 gae/ha): 55%
- CENMA Obs (observed value) ([6]; 17.5 gae/ha): 60%
- SINAR Obs (observed value) ([14]; 8.75 gae/ha): 25%
- SINAR Obs (observed value) ([14]; 17.5 gae/ha): 45%
- TRFRE Obs (observed value) ([15]; 8.75 gae/ha): 45%
- TRFRE Obs (observed value) ([15]; 17.5 gae/ha): 55%

SMILES: Cc1cc(Cl)ccc1OCC(=O)O [MCPA, 2-(4-chloro-2-methylphenoxy)acetic acid]
- BRSNN Ob (observed value) ([13]; 140 gai/ha): 70%
- POLCO Ob (observed value) [16]: 0%
- VIOTR Ob (observed value) [17]: 40%

From patent US8912120B2, “Herbicidal compositions comprising 4-amino-3-chloro-5-fluoro-6-(4-chloro-2-fluoro-3-methoxyphenyl) pyridine-2-carboxylic acid or a derivative thereof and synthetic auxin herbicides” (Dow AgroSciences, LLC., priority 2012, dated 2014)
